Where a chain is given by its changes, count along the chain named. Values joined by “and” are separate entries in the source; they are usually repeats but may differ in a detail not shown here. Equal values may be shown once. Read-outs that look alike come from different tables or passages of the source.
What was measured:
[1] = target: acid α-glucosidase mutants (Homo sapiens, UniProt P10253, Y455F); assay type: cell-based; details: 20 μM DNJ + 40 μM compound; FIG. 11
Method: (§1) A bacterial clone containing the full length cDNA of […] (IRATp970C0971D, aligned to accession no. NM_000152.3, GeneBank) was received form ImaGenes GmbH, Berlin, Germany. Amplification was performed with the primers 5′-TAGGAGCTGTCCAGGCCATC-3′ (SEQ ID NO:3) and 5′-GAGAGACTAACACACTCCGC-3′ (SEQ ID NO:4). The PCR was carried out using iProof DNA Polymerase (BioRad). The cDNA was subcloned into pCRII TA TOPO vector (Invitrogen). Prior to ligation, the cDNA insert was incubated with Taq polymerase (Qiagen) to add a poly (A) overhang at the 3′-end for TA-cloning. For expression, the GAA cDNA was ligated into target vector pcDNA3.1/V5-His6 (Invitrogen) using sticky end ligation utilizing unique restriction sites (HindIII, XhoI) offered by both vectors multiple cloning sites.
(§2) Sample preparation was carried out analogously to the α-galactosidase A recordings. As substrate, a 1.3 mg 4-Methylumbelliferyl-α-D-Glukopyranoside/ml solution (in sodium acetate buffer, pH 4.0) was used and 5 μg sample/reaction were added. The reaction was incubated for 60 minutes at 37° C. and stopped with 1M Glycine-NaOH, pH 10.5.

[2] = target: acid α-glucosidase mutants (Homo sapiens, UniProt P10253, L552P); assay type: cell-based; details: 20 μM DNJ + 40 μM compound; FIG. 11B
Chain of acid α-glucosidase mutants (Homo sapiens, UniProt P10253, L552P) (P10253 70-952 L552P): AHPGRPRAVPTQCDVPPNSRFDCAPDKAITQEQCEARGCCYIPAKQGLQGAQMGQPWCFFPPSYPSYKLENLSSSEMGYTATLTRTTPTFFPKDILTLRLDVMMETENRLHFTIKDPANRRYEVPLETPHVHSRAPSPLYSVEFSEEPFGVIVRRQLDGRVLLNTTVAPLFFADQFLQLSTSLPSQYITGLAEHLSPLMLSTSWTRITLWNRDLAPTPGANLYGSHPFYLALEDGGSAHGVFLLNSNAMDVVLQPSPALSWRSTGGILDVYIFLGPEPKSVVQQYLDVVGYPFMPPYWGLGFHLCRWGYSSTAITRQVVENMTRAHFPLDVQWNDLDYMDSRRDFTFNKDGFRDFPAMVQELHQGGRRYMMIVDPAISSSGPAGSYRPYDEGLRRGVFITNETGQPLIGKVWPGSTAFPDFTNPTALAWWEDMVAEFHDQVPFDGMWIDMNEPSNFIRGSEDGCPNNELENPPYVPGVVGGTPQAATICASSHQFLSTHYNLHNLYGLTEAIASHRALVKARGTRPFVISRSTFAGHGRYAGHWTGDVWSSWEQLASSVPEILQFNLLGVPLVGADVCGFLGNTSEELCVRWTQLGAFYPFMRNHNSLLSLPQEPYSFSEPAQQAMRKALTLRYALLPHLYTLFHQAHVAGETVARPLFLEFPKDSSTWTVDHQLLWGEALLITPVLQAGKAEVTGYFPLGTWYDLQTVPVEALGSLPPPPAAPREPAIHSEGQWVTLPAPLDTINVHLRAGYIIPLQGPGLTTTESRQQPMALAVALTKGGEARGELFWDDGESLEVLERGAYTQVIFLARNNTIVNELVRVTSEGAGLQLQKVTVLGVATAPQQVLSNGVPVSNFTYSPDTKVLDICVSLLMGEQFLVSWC
Method: as §1, §2

GLA[A156V] = target: T1, GLA[A156V] (Homo sapiens, UniProt P06280, A156V); assay type: cell-based; details: for mutant enzyme activity in combination with DGJ, concentration series: increasing concentrations of compound with DGJ, FIG. 10; for mutant enzyme activity in combination with DGJ: concentration of SF-54B and SF-55C 10 μM and 40 μM, respectively
T1 sequence (P06280 32-429 A156V): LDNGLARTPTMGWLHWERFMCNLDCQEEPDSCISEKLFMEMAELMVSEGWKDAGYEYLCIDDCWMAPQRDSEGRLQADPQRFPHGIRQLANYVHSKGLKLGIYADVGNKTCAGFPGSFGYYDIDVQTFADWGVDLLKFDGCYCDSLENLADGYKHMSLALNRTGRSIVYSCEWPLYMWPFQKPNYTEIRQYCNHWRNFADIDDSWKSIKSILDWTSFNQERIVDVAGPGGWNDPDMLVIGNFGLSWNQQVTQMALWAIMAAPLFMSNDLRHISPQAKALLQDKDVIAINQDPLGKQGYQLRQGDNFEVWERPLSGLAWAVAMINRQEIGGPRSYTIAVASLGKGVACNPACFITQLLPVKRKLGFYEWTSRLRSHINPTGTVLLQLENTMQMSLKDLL

[3] = test system: GLA mutants (alpha-galactosidase A); details: for enzyme activity of GLA mutants, compound in combination with DGJ: 40 μM compound + 20 μM DGJ, compared to DGJ alone, DGJ-responsive mutants, FIG. 3, FIG. 6
[4] = cited from earlier work
[5] = Plasma concentration and absorption (literature); assay type: in vivo, human; details: 32 mg tablet; estimate
hexosaminidase A = target: T2, hexosaminidase A (Homo sapiens, UniProt P06865+P07686); details: cited from earlier work
T2 sequence (P06865 89-529): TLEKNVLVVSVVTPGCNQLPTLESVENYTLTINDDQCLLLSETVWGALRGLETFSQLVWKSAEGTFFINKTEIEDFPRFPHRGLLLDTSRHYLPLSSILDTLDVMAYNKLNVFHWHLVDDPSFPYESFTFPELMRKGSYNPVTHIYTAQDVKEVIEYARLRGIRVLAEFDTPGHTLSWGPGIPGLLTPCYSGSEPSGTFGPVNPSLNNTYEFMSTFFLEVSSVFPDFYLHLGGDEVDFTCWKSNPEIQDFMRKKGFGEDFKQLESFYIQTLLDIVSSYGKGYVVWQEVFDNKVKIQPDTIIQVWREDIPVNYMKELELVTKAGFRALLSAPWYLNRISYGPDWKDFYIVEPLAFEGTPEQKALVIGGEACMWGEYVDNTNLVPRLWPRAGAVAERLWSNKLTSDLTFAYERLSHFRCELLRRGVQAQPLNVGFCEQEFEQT
T2 sequence (P07686 122-556): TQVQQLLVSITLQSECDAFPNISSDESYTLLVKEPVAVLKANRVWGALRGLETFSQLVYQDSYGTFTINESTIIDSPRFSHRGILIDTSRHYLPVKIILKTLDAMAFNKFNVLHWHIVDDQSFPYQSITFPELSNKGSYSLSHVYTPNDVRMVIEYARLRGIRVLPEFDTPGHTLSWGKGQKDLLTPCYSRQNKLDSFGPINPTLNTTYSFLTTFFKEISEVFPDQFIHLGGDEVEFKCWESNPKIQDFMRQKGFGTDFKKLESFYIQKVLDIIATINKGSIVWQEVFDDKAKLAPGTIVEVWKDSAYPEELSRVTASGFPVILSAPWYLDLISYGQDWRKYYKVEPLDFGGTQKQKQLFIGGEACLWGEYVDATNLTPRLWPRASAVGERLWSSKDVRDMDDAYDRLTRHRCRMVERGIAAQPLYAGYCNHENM

[6] = test system: acid α-glucosidase mutants; assay type: cell-based; details: 20 μM NB-DNJ alone; FIG. 7A
Method: as §1, §2

mutant GLA [7] = details: washout two hours prior to assay; cited from earlier work
GLA = details: patient lymphoblasts; cited from earlier work
Alpha-Gal A = details: grown in the presence of DGJ, cited from earlier work
mutant GLA [8] = details: cell-free; cited from earlier work
GLA[R301G] = target: T3, GLA[R301G] (Homo sapiens, UniProt P06280, R301G); assay type: cell-based
T3 sequence (P06280 32-429 R301G): T1 sequence (P06280 32-429 A156V) with V125A, R270G

[9] = value with superscript 1 (mark not explained)
[10] = value with superscript 2 (mark not explained)

Chain of acid α-glucosidase mutants (Homo sapiens, UniProt P10253, Y455F) (P10253 70-952 Y455F): as the sequence (P10253 70-952 L552P) above, with Y386F, P483L counted along it

## CC(=O)OC1CCC(NCc2cc(Br)cc(Br)c2N)CC1 (stereo not drawn) [SF-153B]
[1]
  increase in the activity of acid α-glucosidase mutant Y455F, compound with DNJ compared to DNJ alone: higher
[2]
  increase in the activity of mutant L552P, compound with DNJ compared to DNJ only: higher
GLA[A156V]
  mutant enzyme activity in combination with DGJ, concentration series: high increase

## CN(Cc1cc(Br)cc(Br)c1N)C1CCCCC1 [Bromhexine, 2,4-dibromo-6-{[cyclohexyl(methyl)amino]methyl}aniline]
[3]; 40 μM Bromhexine or Ambroxol + 20 μM DGJ, FIG. 6
  difference of protein activity between Bromhexine and DGJ and Ambroxol and DGJ: no significant difference
[3]; 40 μM Bromhexine without DGJ, FIG. 6
  alpha-Galactosidase A activity of mutant GLAs, bromhexine alone: no effect
[3]
  enzyme activity of GLA mutants, compound in combination with DGJ: significantly increased
[3]; listed as bromhexine
  enzyme activity of GLA mutants, compound in combination with DGJ: increased
[1]
  increase in the activity of acid α-glucosidase mutant Y455F, compound with DNJ compared to DNJ alone: comparable
[4]; 32 mg tablet (77.6 μmol)
  intestinal absorption: 22-27%
[4]; Bechgaard et al.
  concentration of bromhexine: 0.08 µM
[5]
  resulting concentration referring to blood volume after first pass loss: approximately 0.7 μM

## CC(=O)NC1CN2CC[C@H](O)C2[C@@H](O)C1O (stereo partly drawn) [6-Acetamido-6-deoxycastanospermine]
Hexosaminidase A; [9]
  IC50: 0.5 µM

## N-butyl-DNJ [NB-DNJ]
[6]
  enzyme activity of mutations Y455F, P545L and L552P, NB-DNJ: significantly increased

## CC(=O)NC1CNC(CO)[C@@H](O)C1O (stereo partly drawn) [2-Acetamido-1,2-dideoxynojirimycin]
Hexosaminidase A; [10]
  Ki: 0.7 µM

## N#Cc1cc(C#N)c(N)c(CNC2CCC(O)CC2)c1 (stereo not drawn) [SF-124B]
[1]
  increase in the activity of acid α-glucosidase mutant Y455F, compound with DNJ compared to DNJ alone: comparable
[2]
  increase in the activity of mutant L552P, compound with DNJ compared to DNJ only: higher

## CN(Cc1cc(C#N)cc(Br)c1N)C1CCCCC1 [SF-55C]
[1]
  increase in the activity of acid α-glucosidase mutant Y455F, compound with DNJ compared to DNJ alone: comparable
GLA[A156V]; 20 μM DGJ, FIG. 9
  mutant enzyme activity in combination with DGJ: high increase
GLA[A156V]
  mutant enzyme activity in combination with DGJ, concentration series: high increase

## CC(=O)N[C@H]1C(O)O[C@H](CO)[C@H](O)[C@@H]1O (stereo partly drawn) [N-Acetyl-galactosamine (GalNAc), N-Acetyl-galactosamine]
Hexosaminidase A; [9]
  Ki: 0.0019 µM

## Cc1cc(C)cc(-c2cc(CN(C)C3CCCCC3)c(N)c(-c3cc(C)cc(C)c3)c2)c1 [SF-80]
GLA[A156V]; 20 μM DGJ, FIG. 9
  concentration in combination with DGJ giving an increase as high as Ambroxol at up to 10 μM with DGJ: 1 µM

## CN(Cc1cc(C#N)cc(C#N)c1N)C1CCCCC1 [SF-54B]
[1]
  increase in the activity of acid α-glucosidase mutant Y455F, compound with DNJ compared to DNJ alone: comparable
GLA[A156V]; 20 μM DGJ, FIG. 9
  mutant enzyme activity in combination with DGJ: high increase
GLA[A156V]
  mutant enzyme activity in combination with DGJ, concentration series: high increase

## OC[C@H]1NC[C@H](O)[C@@H](O)[C@H]1O [DGJ, 1-Deoxygalactonojirimycin]
Mutant GLA [7]
  concentration tolerated without any detectable inhibition of the tested mutant enzyme: up to 1 mM
GLA
  concentration beyond which GLA activity decreases: > 100 µM
Alpha-Gal A; other mutations
  Alpha-Gal A activity: unaffected
Alpha-Gal A; several mutations
  Alpha-Gal A activity: more than 50 % of normal
GLA[A156V]; 20 μM DGJ alone, no Ambroxol, untreated = 1.0, FIG. 5A
  increase of GLA[A156V] activity: 3.8 fold and 4 fold
GLA[A156V]; with 40 μM Ambroxol in addition, GLA[A156V]
  concentration of DGJ reaching the same effect as 20 μM DGJ alone: 8.9 µM
Mutant GLA [8]
  dosages already inhibiting: below 1 μM
[4]; clinical trials, Wu et al.
  clinically achievable concentration: 10 µM
GLA[R301G]; 20 μM DGJ without Ambroxol, untreated = 1.0, FIG. 5B
  increase of GLA[R301G] activity: 2.8 fold
GLA[R301G]; in combination with 40 μM Ambroxol, mutant not named in the block
  concentration of DGJ sufficient to reach the level of 20 μM DGJ alone: 4.72 µM
GLA[R301G]; in combination with 40 μM Ambroxol, same increase of protein activity
  share of the DGJ concentration needed compared to DGJ alone: ~25%

## CC(=O)NC1C(O)NC(CO)[C@@H](O)C1O (stereo partly drawn) [2-Acetamido-2-deoxynojirimycin (ADNJ), 2-Acetamido-2-deoxynojirimycin]
Hexosaminidase A; [10]
  Ki: 0.005 µM

## CC(=O)Nc1c(Br)cc(Br)cc1CN(C)C1CCCCC1 [SF-150B]
[1]
  increase in the activity of acid α-glucosidase mutant Y455F, compound with DNJ compared to DNJ alone: higher
[2]
  increase in the activity of mutant L552P, compound with DNJ compared to DNJ only: higher
GLA[A156V]
  mutant enzyme activity in combination with DGJ, concentration series: high increase
